Laboratory results: PMC4977052, “On the Utility of ToxCast™ and ToxPi as Methods for Identifying New Obesogens” (Environmental Health Perspectives, 2016)
“And” between values parts separate entries of the source, which are not always exact repeats. Equal values may be shown once. Read-outs that look alike come from different tables or passages of the source.

Key:
[1] = test system: PPARγ; conditions: cited from earlier work
[2] = molecular target: T1, GAL4-mPPARγ (Mus musculus, UniProt P37238); test: GAL4-mPPARγ antagonism in competition with 50 nM rosiglitazone, transiently transfected COS7 cells; format: cell-based
T1 construct: expressed in transfected cells; host or cells: COS7
T1 sequence (P37238 with tags, fused parts or gaps limits assumed): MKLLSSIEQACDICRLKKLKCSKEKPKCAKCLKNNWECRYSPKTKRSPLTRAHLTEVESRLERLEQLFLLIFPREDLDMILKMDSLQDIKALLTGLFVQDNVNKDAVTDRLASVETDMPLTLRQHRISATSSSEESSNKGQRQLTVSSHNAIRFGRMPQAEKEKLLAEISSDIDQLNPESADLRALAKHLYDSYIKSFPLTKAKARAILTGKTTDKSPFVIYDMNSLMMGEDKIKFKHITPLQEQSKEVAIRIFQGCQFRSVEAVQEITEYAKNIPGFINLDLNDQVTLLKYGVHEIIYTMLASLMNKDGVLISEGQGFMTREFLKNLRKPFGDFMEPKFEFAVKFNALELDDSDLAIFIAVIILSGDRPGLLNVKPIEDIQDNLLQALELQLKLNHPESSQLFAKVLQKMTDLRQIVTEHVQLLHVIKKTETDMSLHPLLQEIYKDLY
Method: (§1) pCMX-Gal4, pCMX-Gal4-mPPARγ, and pCMX-Gal4-hRXRα were previously described ([Grün et al. 2006]). Transient transfections were performed in COS7 cells as described ([Chamorro-García et al. 2012]). Briefly, COS7 cells were seeded at 15,000 cells per well in 96-well tissue culture plates in 10% calf bovine serum. The following day, cells were transfected in Opti-MEM at ~ 90% confluency. One microgram of CMX-GAL4 effector plasmid was co-transfected with 5 μg tk-(MH100)4-luciferase reporter and 5 μg of CMX-β-galactosidase transfection control plasmids in Opti-MEM® using Lipofectamine® 2000 reagent (Invitrogen™ Life Technologies, Carlsbad, CA, USA), following the manufacturer’s recommended protocol. All chemicals were solvated in dimethyl sulfoxide (DMSO). After overnight incubation, the medium was replaced with Dulbecco’s Modified Eagle Medium (DMEM; HyClone, Logan, UT, USA), 10% resin charcoal stripped fetal bovine serum (FBS) plus ligands at concentrations indicated in the figure legends for an additional 24 hr. DMSO concentration was maintained at 0.05% across all chemical treatments. Cells were lysed and assayed for luciferase and β-galactosidase activity as previously described ([Forman et al. 1995]). All transfections were performed in triplicate and reproduced in multiple experiments. Data are reported as fold induction or reduction over vehicle ([…]) controls ± SEM (standard error of the mean) using standard propagation of error ([Bevington and Robinson 2003]). […] The EC50, EC10, IC50, and IC10 values from NCGC and ToxCast™ are reported from gain AC50 and AC10 values in the ToxCast™ 2014 release ([Filer et al. 2014]).
(§2) Figure 1 ToxCast™ Chemical Activity on PPARγ. The ability of a graded dose series of ToxCast™ chemicals to (A) activate or (B) antagonize GAL4-mPPARγ was tested in transiently transfected COS7 cells. (A, B) Data points are averages of triplicate transfections (three biological replicates). […] Data are depicted as (A) fold induction or (B) reduction over vehicle (0.05% DMSO) controls ± SEM. (A) ToxCast™ chemicals were tested in 3-fold serial dilutions from 100 μM through 0.137 μM, with the final data point being 0.05% DMSO. Rosiglitazone serves as a positive control activator. (B) ToxCast™ chemicals were tested in 3-fold serial dilutions from 100 μM, in competition with 50 nM rosiglitazone (Rosi). […] (C) EC50, EC10, IC50, and IC10 values calculated from A and B are reported and compared to commercial assays (see Figure S1). Note: ATG, Attagene GAL-PPARγ activation assay; NCGC, GeneBLAzer® agonist (EC values) or antagonist (IC values) assays. Triphenyltin was previously published ([Kanayama et al. 2005]).

[3] = test system: PPARγ; design: method as in Filer et al. 2014; conditions: ref Filer et al. 2014, cited from earlier work; for AC50: PPARγ, NA = not active, read-out: NCGC Antag. AC50, 2014 Release
[4] = test system: 3T3-L1 preadipocytes; test: 3T3-L1 adipogenesis assay (lipid accumulation, adipogenic gene expression); format: cell-based; conditions: 0.02-20 μM, 5 days after MDI induction
Method: 3T3-L1 cells (ATCC) were maintained in high-glucose DMEM supplemented with 10% fetal bovine serum, 2 mM L-glutamine, 50 IU/mL penicillin, and 50 μg/mL streptomycin. A total of 2 × 10^4 cells per well were seeded in 12-well plates. After 48 hr, cells were exposed to the adipogenic cocktail MDI (500 μM isobutylmethylxanthine, 0.25 nM dexamethasone and 5 μg/mL insulin), 8 μg/mL biotin and 8 μg/mL pantothenate for 2 days. Induction media was removed and cells were exposed to test chemicals during 5 days, replacing the media every 2 days. Rosiglitazone (ROSI) and tributyltin (TBT) were used as positive controls at 100 nM and 50 nM final concentrations, respectively. All ToxCast™ chemicals were tested at 0.02, 0.2, 2, and 20 μM, and DMSO concentration was maintained at 0.1% across all treatments. If the chemical was toxic at 20 μM, we repeated the experiment at 10 μM.
Cells were either fixed in 3.7% formaldehyde in phosphate-buffered saline (PBS) for 30 min at room temperature (RT) for lipid quantitation, or homogenized in TriPure (Roche, Mannheim, Germany) for gene expression analysis. For lipid quantitation, fixed cells were washed twice with PBS and maintained in PBS overnight at 4°C to release residual phenol red. Background of cells were measured prior to staining. Cells were stained with 1 μg/mL Nile red (CAS No. 7385-67-3) (to detect lipid accumulation) and 1 μg/mL Hoechst 33342 (ThermoFisher Scientific) (to detect nuclei as a surrogate for cell number) in PBS for 15 min in the dark at RT and washed twice with PBS. […] Background values of Hoechst and Nile red were subtracted from the RFUs after staining and the ratio RFUNile Red:RFUHoechst was calculated. Data are represented as mean ± SEM. Total RNA was isolated using TriPure (Roche) as recommended by the manufacturer. Reverse transcription and quantitative real-time RT-PCR (QPCR) were performed using Transcriptor RT and SYBR® Green Master Mix (Roche). cDNA was quantitated in a LightCycler® 480 System (Roche Diagnostics, Basel, Switzerland) using primer sets listed in Table S4. Each primer set amplified a single band as determined by gel electrophoresis and melting curve analysis. QPCR data were analyzed using the 2^ΔΔCt method ([Livak and Schmittgen 2001]) relative to ribosomal protein 36b4, normalizing to 0.1% DMSO vehicle. Error bars represent the SEM from four to six biological replicates calculated using standard propagation of error ([Bevington and Robinson 2003]).

[5] = molecular target: T1, GAL4-mPPARγ; test: GAL4-mPPARγ activation, transient transfection luciferase reporter in COS7 cells; format: cell-based; conditions: for Activation COS7 (result in words), ToxPi chemicals: PPARγ or RXRα activation assays (Table 2)
Method: as §1, §2
Figure 4 ToxPi Chemical Activity on PPARγ and RXRα. The ability of a graded dose series of ToxPi chemicals to activate (A) GAL4-mPPARγ or (B) GAL4-hRXRα was tested in transiently transfected COS7 cells. (A, B) Data points are averages of triplicate transfections (three biological replicates). […] ToxPi chemicals were tested in 3-fold serial dilutions from 100 μM through 0.137 μM, with the final data point being 0.05% DMSO. Data are depicted as fold induction over vehicle (0.05% DMSO) controls ± SEM. (A) Rosiglitazone serves as a positive control activator for GAL4-mPPARγ. (B) LG100268 (2-[1-(3,5,5,8,8-Pentamethyl-5,6,7,8-tetrahydro-2-naphthyl)cyclopropyl]pyridine-5-carboxylic acid) serves as a positive control activator for GAL4-hRXRα. (C) EC50 and EC10 values calculated from A and B are reported and compared to other assays (see Figure S1). ATG, Attagene GAL-PPARγ or GAL-RXRα activation assay; NCGC, GeneBLAzer® GAL-PPARγ or GAL-RXRα activation assays. Triphenyltin was previously published ([Kanayama et al. 2005]).

[6] = test system: Human PPARγ; conditions: cited from earlier work
[7] = test system: PPARγ; conditions: ref Filer et al. 2014, cited from earlier work
[8] = PPARγ, NA = not active, ref Filer et al. 2014, read-out: ATG Agonist AC50, 2014 Release
[9] = PPARγ, NA = not active, ref Knudsen et al. 2011, read-out: ATG Agonist AC50, 2011 Release
[10] = PPARγ direct binding, NA = not active, ref Filer et al. 2014, read-out: NVS Agonist AC50, 2014 Release
[11] = PPARγ, NA = not active, read-out: NCGC Agonist AC50, 2014 Release
[12] = ToxCast 2014 release, ref Filer et al. 2014, read-out: Attagene AC50 (panel A, w/o Z-Score Correction ranking)
[13] = Cos-7 transient transfection, PPARγ activation or antagonism assays (Table 1, Table S6)

Row | SMILES | AC50 [1, 8] | AC50 [1, 9] | AC50 [3] | Adipogenesis 3T3-L1 (result in words) [4] | Activation COS7 (result in words), ToxCast PPARγ list [5] | other results
1 | CCOCN(C(=O)CCl)c1c(C)cccc1CC [Acetochlor] | 1.5 µM | 1.7 µM | 4.5 µM | Negative |  | AC50 ([2]; Activation AC50 (PPARγ antagonists), Cos-7 transient transfection, competition with 50 nM rosiglitazone): 46.7 µM; Antagonism of PPARγ ([2]; COS7, competition against 50 nM rosiglitazone): weak antagonists; IC50 ([2]; COS7, in competition with 50 nM rosiglitazone): 46.7 µM; PPARγ antagonists: IC10, Fig 1B ([2]; COS7, in competition with 50 nM rosiglitazone, computed from IC50): 9.54 µM; Activation COS7 (result in words): PPARγ antagonist ([2]; Cos-7 transient transfection, competition with 50 nM rosiglitazone): PPARγ antagonist; PPARγ antagonists: IC10, NCGC ([3]; AC10, ToxCast 2014 release): 0.42 µM; IC50 ([3]; read-out: PPARγ antagonists: IC50, NCGC, gain AC50, ToxCast 2014 release): 4.5 µM; Activation of GAL4-PPARγ (text) ([5]; COS7, 100 μM through 0.137 μM): did not activate PPARγ
2 | CCCCOCN(C(=O)CCl)c1c(CC)cccc1CC [Butachlor] | 2 µM | 2.1 µM | 26.4 µM |  |  | 
3 | N#Cc1c(Cl)c(Cl)c(Cl)c(C#N)c1Cl [Chlorothalonil] |  |  | 0.9 µM |  | Inactive | ATG Agonist AC50, 2011 Release ([1]; PPARγ, NA = not active, ref Knudsen et al. 2011): negative; AC50 [6, 10]: 0.46 µM; AC50 ([6]; PPARγ direct binding, NA = not active, ref Knudsen et al. 2011, read-out: NVS Agonist AC50, 2011 Release): 0.6 µM; AC50 [7, 11]: 82.8 µM
4 | COCC(C)N(C(=O)CCl)c1c(C)csc1C (stereo not shown) [Dimethenamid] | 4.6 µM | 5.6 µM | 21.4 µM |  | Inactive | 
5 | COc1ccc(C(=CC(=O)N2CCOCC2)c2ccc(Cl)cc2)cc1OC [Dimethomorph] | 9.4 µM and 10.1 µM | 11 µM | 32.3 µM |  | Inactive | AC50 [6, 10]: 9.6 µM
6 | COC(=O)N(C(=O)N1CO[C@@]2(C(=O)OC)Cc3cc(Cl)ccc3C2=N1)c1ccc(OC(F)(F)F)cc1 [Indoxacarb] | 6.1 µM | 8.5 µM | 10.7 µM |  | Inactive | AC50 [7, 11]: 44.1 µM
7 | N#CSCSC#N [Methylene dithiocyanate] |  |  |  | Negative |  | Activation COS7 (result in words), ToxPi chemicals ([5]; Cos-7 transient transfection): Inactive
8 | CNC(=O)/C=C(\C)OP(=O)(OC)OC [Monocrotophos] |  |  |  | Negative |  | AC50 [1, 12]: 2.2 µM; AC50 ([6]; direct binding, ToxCast 2014 release, ref Filer et al. 2014, read-out: NovaScreen AC50 (panel A)): 20.8 µM; AC50 ([7]; ToxCast 2014 release, read-out: Tox21/NCGC AC50 (panel A)): 67.5 µM; Activation COS7 (result in words), ToxPi chemicals ([5]; Cos-7 transient transfection): Inactive
9 | O=C(Nc1ccc([N+](=O)[O-])cc1Cl)c1cc(Cl)ccc1O [Niclosamide] | 0.56 µM | 0.56 µM | 35.9 µM |  |  | AC50 [1, 12]: 0.6 µM; AC50 [7, 11]: 29.9 µM; Activation COS7 (result in words), ToxCast PPARγ list [5, 13]: Inactive
10 | O=S(=O)(O)C(F)(F)C(F)(F)C(F)(F)C(F)(F)C(F)(F)C(F)(F)C(F)(F)C(F)(F)F [PFOS, perfluorooctanesulfonic acid] |  |  |  | Negative |  | AC50 ([1]; ToxCast Phase I 2011 release, NA = not active, ref Knudsen et al. 2011, read-out: ATGT PPARγ AC50): 26 µM; AC50 ([6]; direct binding, ToxCast Phase I 2011 release, NA = not active, ref Knudsen et al. 2011, read-out: NVS PPARγ AC50): 16 µM; Activation COS7 (result in words), ToxPi chemicals ([5]; Cos-7 transient transfection): Inactive
11 | CCCN(CCOc1c(Cl)cc(Cl)cc1Cl)C(=O)n1ccnc1 [Prochloraz] |  | 3.5 µM | 81.5 µM |  |  | AC50 [6, 10]: 27.5 µM; Activation COS7 (result in words), ToxCast PPARγ list [5, 13]: Inactive
12 | CC1=NNC(=O)N(/N=C/c2cccnc2)C1 [Pymetrozine] |  |  |  | Positive |  | Adipogenesis 3T3-L1 (result in words) ([4]; listed as pymetrozine): promoted adipogenesis; Activation COS7 (result in words), ToxPi chemicals ([5]; Cos-7 transient transfection): Inactive
13 | COC(=O)N(OC)c1ccccc1COc1ccn(-c2ccc(Cl)cc2)n1 [Pyraclostrobin] | 0.61 µM | 0.76 µM | 0.7 µM |  | Inactive | 
14 | CCc1ccc(C(=O)NN(C(=O)c2cc(C)cc(C)c2)C(C)(C)C)cc1 [Tebufenozide] | 7.6 µM | 6.3 µM | 50.8 µM |  | Inactive | 
